According to patent US10344025B2, “GLS1 inhibitors for treating disease” (Board of Regents, The University of Texas System, priority 2014, dated 2019):

What was measured:
[1] = target: purified recombinant human GAC (GLS1) (Homo sapiens (Human), UniProt O94925); test: GLS1 Enzymatic Activity Assay (dual-coupled enzymatic assay, resorufin/Amplex UltraRed readout); assay type: biochemical;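 also: glutamate from GAC coupled via glutamate oxidase and peroxidase to resorufin, read as fluorescence (ex 530, em 590 nm) kinetically or at 20 min, four-parameter logistic IC50 fit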
Chain of purified recombinant human GAC (GLS1) (O94925 other isoform, or with tags, fused parts or gaps): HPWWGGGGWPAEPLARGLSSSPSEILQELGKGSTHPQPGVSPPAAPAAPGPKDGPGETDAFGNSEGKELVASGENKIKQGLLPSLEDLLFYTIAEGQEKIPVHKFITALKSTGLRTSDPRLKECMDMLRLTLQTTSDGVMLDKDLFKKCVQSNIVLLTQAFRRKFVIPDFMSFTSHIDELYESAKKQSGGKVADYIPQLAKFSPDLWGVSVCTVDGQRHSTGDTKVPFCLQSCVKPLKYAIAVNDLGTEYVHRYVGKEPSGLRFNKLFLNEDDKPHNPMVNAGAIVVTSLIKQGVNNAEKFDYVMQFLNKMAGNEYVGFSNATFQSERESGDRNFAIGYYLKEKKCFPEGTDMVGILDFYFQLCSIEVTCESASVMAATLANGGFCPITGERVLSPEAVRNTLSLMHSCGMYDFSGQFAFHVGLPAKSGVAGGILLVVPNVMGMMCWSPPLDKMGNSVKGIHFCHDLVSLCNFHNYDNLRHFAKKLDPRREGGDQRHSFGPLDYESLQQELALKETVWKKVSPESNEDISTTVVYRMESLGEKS

A549 cells = test: Proliferation Assay (A549 viability, Cell Titer Fluor, 72 hours); assay type: cell-based; conditions: Homo sapiens
How it was run: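 A549 cells seeded at 1000 cells/well, rested 24 h, then exposed to compound in 0.5% DMSO for 72 h at 37 °C. Viability read by Cell Titer Fluor fluorescence; IC50 from four-parameter logistic fit.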

| IC50 [1] [nM] | EC50 (A549 cells; A549, 72 h) [nM] | Compound | EC50 (A549 cells) [nM] |
| --- | --- | --- | --- |
| 100 to 500 | > 5000 | CNC(=O)c1cn(CCC(F)Cn2cc(C(=O)NCc3cccc(S(C)(=O)=O)c3)nn2)nn1 (stereo not shown) [Example 183, 1-[3-fluoro-4-(4-{[(3-methanesulfonylphenyl)methyl]carbamoyl}-1H-1,2,3-triazol-1-yl)butyl]-N-methyl-1H-1,2,3-triazole-4-carboxamide] |  |
| < 100 | < 100 | O=C(NCc1cc(C(F)(F)F)ccn1)c1cn(CCC(F)Cn2cc(C(=O)NCc3cccc(OC(F)(F)F)c3)nn2)nn1 (stereo not shown) [Example 439, 1-{3-fluoro-4-[4-({[3-(trifluoromethoxy)phenyl]methyl}carbamoyl)-1H-1,2,3-triazol-1-yl]butyl}-N-{[4-(trifluoromethyl)pyridin-2-yl]methyl}-1H-1,2,3-triazole-4-carboxamide] |  |
| < 100 | 100 to 500 | O=C(Cc1ccccn1)Nc1cn(CCCCn2cc(C(=O)NCc3cc(Cl)ccc3F)nn2)nn1 [Example 338, N-[(5-chloro-2-fluorophenyl)methyl]-1-(4-{4-[2-(pyridin-2-yl)acetamido]-1H-1,2,3-triazol-1-yl}butyl)-1H-1,2,3-triazole-4-carboxamide] |  |
| < 100 | < 100 | CC(C)(C)OC(=O)N1CC(CNC(=O)c2nnc(CCCCn3cc(C(=O)NCc4cccc(OC(F)(F)F)c4)nn3)s2)C1 [Example 73, tert-butyl 3-{[(5-{4-[4-({[3-(trifluoromethoxy)phenyl]methyl}carbamoyl)-1H-1,2,3-triazol-1-yl]butyl}-1,3,4-thiadiazol-2-yl)formamido]methyl}azetidine-1-carboxylate] |  |
| < 100 | 500 to 5000 | O=C(Cc1ccccc1)Nc1nnc(CCCCn2cc(C(=O)NCCc3ccccc3)nn2)s1 [Example 13, 1-{4-[5-(2-phenylacetamido)-1,3,4-thiadiazol-2-yl]butyl}-N-(2-phenylethyl)-1H-1,2,3-triazole-4-carboxamide] |  |
| < 100 | < 100 | O=C(NCc1cncc(C(F)(F)F)c1)c1cn(CCC(F)Cn2cc(C(=O)NCc3cccc(OC(F)(F)F)c3)nn2)nn1 (stereo not shown) [Example 478, 1-{3-fluoro-4-[4-({[3-(trifluoromethoxy)phenyl]methyl}carbamoyl)-1H-1,2,3-triazol-1-yl]butyl}-N-{[5-(trifluoromethyl)pyridin-3-yl]methyl}-1H-1,2,3-triazole-4-carboxamide] |  |
| < 100 | < 100 | CNC(=O)c1cn(C[C@H](F)CCc2ccc(NC(=O)Cc3ccccc3)nn2)nn1 [Example 273, (R)-1-(2-fluoro-4-(6-(2-phenylacetamido)pyridazin-3-yl)butyl)-N-methyl-1H-1,2,3-triazole-4-carboxamide] |  |
| 500 to 5000 | > 5000 | CNC(=O)c1cn(CC(F)CCc2nnc(C(=O)NCc3ccc(C(F)(F)F)cn3)s2)nn1 (stereo not shown) [Example 189, 5-{3-fluoro-4-[4-(methylcarbamoyl)-1H-1,2,3-triazol-1-yl]butyl}-N-{[5-(trifluoromethyl)pyridin-2-yl]methyl}-1,3,4-thiadiazole-2-carboxamide] |  |
| < 100 | < 100 | O=C(Cc1cncs1)Nc1nnc(CCC(F)Cn2cc(C(=O)NCc3cc(OC(F)(F)F)ccc3F)nn2)s1 (stereo not shown) [Example 593, 1-(2-fluoro-4-(5-(2-(thiazol-5-yl)acetamido)-1,3,4-thiadiazol-2-yl)butyl)-N-(2-fluoro-5-(trifluoromethoxy)benzyl)-1H-1,2,3-triazole-4-carboxamide] |  |
| < 100 | < 100 | O=C(NCc1ccc(C(F)(F)F)cn1)c1cn(CC(F)CCc2nnc(C(=O)NCc3cc(OC(F)(F)F)ccc3F)s2)nn1 (stereo not shown) [Example 448, 5-{3-fluoro-4-[4-({[5-(trifluoromethyl)pyridin-2-yl]methyl}carbamoyl)-1H-1,2,3-triazol-1-yl]butyl}-N-{[2-fluoro-5-(trifluoromethoxy)phenyl]methyl}-1,3,4-thiadiazole-2-carboxamide] |  |
| < 100 | < 100 | CNC(=O)c1cn(CCCCc2ccc(NC(=O)Cc3cccc(C4CCN(C(=O)OC(C)(C)C)CC4)c3)nn2)nn1 [Example 213, tert-butyl 4-(3-(2-((6-(4-(4-(methylcarbamoyl)-1H-1,2,3-triazol-1-yl)butyl)pyridazin-3-yl)amino)-2-oxoethyl)phenyl)piperidine-1-carboxylate] |  |
| 500 to 5000 | 500 to 5000 | C[C@H](NC(=O)c1cn(CCCCn2cc(C(=O)NCc3cc(C(F)(F)F)ccn3)nn2)nn1)c1ccccc1 [Example 99, 1-[4-(4-{[(1S)-1-phenylethyl]carbamoyl}-1H-1,2,3-triazol-1-yl)butyl]-N-{[4-(trifluoromethyl)pyridin-2-yl]methyl}-1H-1,2,3-triazole-4-carboxamide] |  |
| < 100 | < 100 | CNC(=O)c1nnc(CCCCc2ccc(NC(=O)Cc3cncc(-c4cccc(OC(F)(F)F)c4)c3)nn2)s1 [Example 216, N-methyl-5-(4-(6-(2-(5-(3-(trifluoromethoxy)phenyl)pyridin-3-yl)acetamido)pyridazin-3-yl)butyl)-1,3,4-thiadiazole-2-carboxamide] |  |
| 100 to 500 | 500 to 5000 | O=C(CC1CCCCC1)Nc1cn(CCCCn2cc(C(=O)NCc3ccccn3)nn2)nn1 [Example 280, 1-{4-[4-(2-cyclohexylacetamido)-1H-1,2,3-triazol-1-yl]butyl}-N-(pyridin-2-ylmethyl)-1H-1,2,3-triazole-4-carboxamide] |  |
| < 100 | < 100 | CNC(=O)c1cn(CCCCc2ccc(NC(=O)Cc3cccc(C4=CCN(C(=O)OC(C)(C)C)CC4)c3)nn2)nn1 [Example 212, tert-butyl 4-(3-(2-((6-(4-(4-(methylcarbamoyl)-1H-1,2,3-triazol-1-yl)butyl)pyridazin-3-yl)amino)-2-oxoethyl)phenyl)-3,6-dihydropyridine-1(2H)-carboxylate] |  |
| < 100 | < 100 | O=C(NCc1cccc(C(F)(F)F)n1)c1cn(CCC(F)Cn2cc(C(=O)NCc3cc(C(F)(F)F)ccn3)nn2)nn1 (stereo not shown) [Example 474, 1-{2-fluoro-4-[4-({[6-(trifluoromethyl)pyridin-2-yl]methyl}carbamoyl)-1H-1,2,3-triazol-1-yl]butyl}-N-{[4-(trifluoromethyl)pyridin-2-yl]methyl}-1H-1,2,3-triazole-4-carboxamide] |  |
| < 100 | < 100 | CNC(=O)c1cn(CC(F)CCc2ccc(NC(=O)Cc3ccccc3)nn2)nn1 (stereo not shown) [Example 244, 1-(2-fluoro-4-(6-(2-phenylacetamido)pyridazin-3-yl)butyl)-N-methyl-1H-1,2,3-triazole-4-carboxamide] |  |
| < 100 | < 100 | O=C(NCc1cc(C2CC2)ccn1)c1cn(CCC(F)Cn2cc(C(=O)NCc3cncc(C(F)(F)F)c3)nn2)nn1 (stereo not shown) [Example 152, N-[(4-cyclopropylpyridin-2-yl)methyl]-1-{3-fluoro-4-[4-({[5-(trifluoromethyl)pyridin-3-yl]methyl}carbamoyl)-1H-1,2,3-triazol-1-yl]butyl}-1H-1,2,3-triazole-4-carboxamide] |  |
| 100 to 500 | 500 to 5000 | O=C(Cc1cccnc1)Nc1cn(CCCCn2cc(C(=O)NCC3CCCCC3)nn2)nn1 [Example 284, N-(cyclohexylmethyl)-1-(4-{4-[2-(pyridin-3-yl)acetamido]-1H-1,2,3-triazol-1-yl}butyl)-1H-1,2,3-triazole-4-carboxamide] |  |
| < 100 | < 100 | CC(=O)Nc1ccc(CCCCc2nnc(C(=O)NCc3cc(OC(F)(F)F)ccc3F)s2)nn1 [Example 600, 5-(4-(6-acetamidopyridazin-3-yl)butyl)-N-(2-fluoro-5-(trifluoromethoxy)benzyl)-1,3,4-thiadiazole-2-carboxamide] |  |
| < 100 | 100 to 500 | O=C(Cc1ccn[nH]1)Nc1nnc(CCC(F)Cn2cc(C(=O)NCc3cc(OC(F)(F)F)ccc3F)nn2)s1 (stereo not shown) [Example 575, 1-(4-(5-(2-(1H-pyrazol-5-yl)acetamido)-1,3,4-thiadiazol-2-yl)-2-fluorobutyl)-N-(2-fluoro-5-(trifluoromethoxy)benzyl)-1H-1,2,3-triazole-4-carboxamide] |  |
| < 100 | < 100 | O=C(NCc1cc(C(F)(F)F)ccn1)c1cn(CCCCn2cc(C(=O)NCc3cc(C(F)(F)F)ccn3)nn2)nn1 [Example 158, N-{[4-(trifluoromethyl)pyridin-2-yl]methyl}-1-{4-[4-({[4-(trifluoromethyl)pyridin-2-yl]methyl}carbamoyl)-1H-1,2,3-triazol-1-yl]butyl}-1H-1,2,3-triazole-4-carboxamide] |  |
| < 100 | 100 to 500 | CC(=O)Nc1ccc(CCCCn2cc(C(=O)NCc3cccc(OC(F)(F)F)c3)nn2)nn1 [Example 174, 1-[4-(6-acetamidopyridazin-3-yl)butyl]-N-{[3-(trifluoromethoxy)phenyl]methyl}-1H-1,2,3-triazole-4-carboxamide] |  |
| < 100 | < 100 | O=C(NCc1cccc(C(F)(F)F)n1)c1cn(CCC(F)Cn2cc(C(=O)NCc3cccc(OC(F)(F)F)c3)nn2)nn1 (stereo not shown) [Example 438, 1-{3-fluoro-4-[4-({[3-(trifluoromethoxy)phenyl]methyl}carbamoyl)-1H-1,2,3-triazol-1-yl]butyl}-N-{[6-(trifluoromethyl)pyridin-2-yl]methyl}-1H-1,2,3-triazole-4-carboxamide] |  |

| Compound | IC50 [1] [nM] | EC50 (A549 cells; A549, 72 h) [nM] | EC50 (A549 cells) [nM] |
| --- | --- | --- | --- |
| O=C(Cc1ccccn1)Nc1nnc(CC[C@H](F)Cn2cc(C(=O)NCc3cc(C(F)(F)F)ccn3)nn2)s1 [Example 238, (S)-1-(2-fluoro-4-(5-(2-(pyridin-2-yl)acetamido)-1,3,4-thiadiazol-2-yl)butyl)-N-((4-(trifluoromethyl)pyridin-2-yl)methyl)-1H-1,2,3-triazole-4-carboxamide] | < 100 | 100 to 500 |  |
| CNC(=O)c1cn(CCCCc2ccc(NC(=O)OC3CCCCC3)nn2)nn1 [Example 243, cyclohexyl (6-(4-(4-(methylcarbamoyl)-1H-1,2,3-triazol-1-yl)butyl)pyridazin-3-yl)carbamate] | 100 to 500 |  | 100 to 500 |
